{
  "source": "patent US20100314318A1",
  "about": "“HALOGENATED AMIDE BIOCIDAL COMPOUNDS AND METHODS FOR TREATING WATER SYSTEMS AT NEAR NEUTRAL TO HIGH PH” (priority 2009, published 2010)",
  "key": {"[1]": {"tested_on": "bacteria in Cooling Tower water", "test": "Efficacy in cooling tower water sample (about pH 8.3), serial dilution count", "format": "cell-based"}, "[2]": {"tested_on": "bacteria isolated from Cooling Tower water", "test": "Efficacy in sterile artificial Cooling Tower water (approx. pH 8.5)", "format": "cell-based", "settings": "30° C."}, "[3]": {"tested_on": "bacteria isolated from field", "test": "Efficacy in semi-synthetic metal working fluid", "format": "cell-based", "settings": "room temperature, MWF"}, "[4]": {"tested_on": "Pseudomonas aeruginosa ATCC 10145", "test": "Bactericidal efficacy in synthetic salts water pH 8.5", "format": "cell-based", "settings": "37° C.", "procedure": "A sterile synthetic salts water is prepared and inoculated with Pseudomonas aeruginosa ATCC 10145 at about 10^7 CFU/mL. The synthetic water is prepared to contain (in 1 liter deionized water) the following: CaCl2, 0.2203 g; MgSO4, 0.1847 g; and NaHCO3, 0.2033 g. The final pH of the synthetic cooling water is adjusted to 8.5. Aliquots of the cell suspension are then treated with biocides at selected dosage levels. The same contaminated water sample without biocide is used as control. After incubating at 37° C. for different time intervals, numbers of surviving bacteria are enumerated using a serial dilution method. After incubating for 24 hr, all cell suspensions are reinoculated with Pseudomonas aeruginosa ATCC 10145 at 10^6 CFU/mL. The efficacy results for […]"}, "[5]": {"settings": "going from pH 6 to pH 8.9; cited from earlier work"}, "[6]": {"tested_on": "bacterial consortium", "test": "Preservation of calcium carbonate slurry Hydrocarb 90 (pH 8.7)", "settings": "24-hr contact"}, "[7]": {"test": "Stability against hydrolysis in buffered dilute solutions, HPLC"}},
  "data": [
    {"molecule": "N#CC(Br)(Br)C(N)=O", "note": "[DBNPA, 2,2-Dibromo-3-nitrilopropionamide]", "values": [
      {"measurement": "Bacterial log10 reduction after biocide addition", "setting": "[1]; 12.5 ppm active, 1 hr", "value": 5.3, "unit": "log10"},
      {"measurement": "Bacterial log10 reduction after biocide addition", "setting": "[1]; 12.5 ppm active, 48 hrs, re-inoculated", "value": 1.5, "unit": "log10"},
      {"measurement": "Bacterial log10 reduction after biocide addition", "setting": "[1]; 12.5 ppm active, 72 hrs, re-inoculated", "value": 0.7, "unit": "log10"},
      {"measurement": "Bacterial log10 reduction after biocide addition", "setting": "[1]; 12.5 ppm active, 96 hrs, re-inoculated", "value": 0.3, "unit": "log10"},
      {"measurement": "Bacterial log10 reduction after biocide addition", "setting": "[1]; 25 ppm active, 1 hr", "value": 5.2, "unit": "log10"},
      {"measurement": "Bacterial log10 reduction after biocide addition", "setting": "[1]; 25 ppm active, 3 hr", "value": ">=5.7 log10"},
      {"measurement": "Bacterial log10 reduction after biocide addition", "setting": "[1]; 25 ppm active, 24 hrs", "value": ">=6.3 log10"},
      {"measurement": "Bacterial log10 reduction after biocide addition", "setting": "[1]; 25 ppm active, 48 hrs, re-inoculated", "value": 4.2, "unit": "log10"},
      {"measurement": "Bacterial log10 reduction after biocide addition", "setting": "[1]; 25 ppm active, 72 hrs, re-inoculated", "value": 1.0, "unit": "log10"},
      {"measurement": "Bacterial log10 reduction after biocide addition", "setting": "[1]; 25 ppm active, 96 hrs, re-inoculated", "value": 0.7, "unit": "log10"},
      {"measurement": "Bacterial log10 reduction after biocide addition", "setting": "[1]; 50 ppm active, 1 hr", "value": ">=5.3 log10"},
      {"measurement": "Bacterial log10 reduction after biocide addition", "setting": "[1]; 50 ppm active, 3 hr", "value": ">=5.7 log10"},
      {"measurement": "Bacterial log10 reduction after biocide addition", "setting": "[1]; 50 ppm active, 24 hrs", "value": ">=6.3 log10"},
      {"measurement": "Bacterial log10 reduction after biocide addition", "setting": "[1]; 50 ppm active, 48 hrs, re-inoculated", "value": 6.1, "unit": "log10"},
      {"measurement": "Bacterial log10 reduction after biocide addition", "setting": "[1]; 50 ppm active, 72 hrs, re-inoculated", "value": 1.0, "unit": "log10"},
      {"measurement": "Bacterial log10 reduction after biocide addition", "setting": "[1]; 50 ppm active, 96 hrs, re-inoculated", "value": 0.8, "unit": "log10"},
      {"measurement": "Minimum biocide dosage (ppm, active) needed for at least 3 log10 bacterial reduction", "setting": "[2]; 1 h", "value": 8.0, "unit": "ppm"},
      {"measurement": "Minimum biocide dosage (ppm, active) needed for at least 3 log10 bacterial reduction", "setting": "[2]; 3 h", "value": 8.0, "unit": "ppm"},
      {"measurement": "Minimum biocide dosage (ppm, active) needed for at least 3 log10 bacterial reduction", "setting": "[2]; 24 h", "value": 11.0, "unit": "ppm"},
      {"measurement": "Minimum biocide dosage (ppm, active) needed for at least 3 log10 bacterial reduction", "setting": "[2]; 48 h, reinoculated", "value": 15.0, "unit": "ppm"},
      {"measurement": "Minimum biocide dosage (ppm, active) needed for at least 3 log10 bacterial reduction", "setting": "[2]; 72 h, reinoculated", "value": 15.0, "unit": "ppm"},
      {"measurement": "Minimum biocide dosage (ppm, active) needed for at least 3 log10 bacterial reduction", "setting": "[2]; 96 h, reinoculated", "value": 21.0, "unit": "ppm"},
      {"measurement": "Minimum dosage (ppm, active) required for at least 3 log10 reduction in bacterial counts", "setting": "[3]; 2 h", "value": 42, "unit": "ppm"},
      {"measurement": "Minimum dosage (ppm, active) required for at least 3 log10 reduction in bacterial counts", "setting": "[3]; 4 h", "value": 32, "unit": "ppm"},
      {"measurement": "Minimum dosage (ppm, active) required for at least 3 log10 reduction in bacterial counts", "setting": "[3]; 24 h", "value": 42, "unit": "ppm"},
      {"measurement": "Minimum dosage (ppm, active) required for at least 3 log10 reduction in bacterial counts", "setting": "[3]; 48 h", "value": 55, "unit": "ppm"},
      {"measurement": "Minimum dosage (ppm, active) required for at least 3 log10 reduction in bacterial counts", "setting": "[3]; 72 h", "value": 55, "unit": "ppm"},
      {"measurement": "Minimum dosage (ppm, active) required for at least 3 log10 reduction in bacterial counts", "setting": "[3]; 96 h", "value": 55, "unit": "ppm"},
      {"measurement": "Dosage required for 3 log10 bacterial reduction (ppm, active)", "setting": "[4]; 1 hr, pH 8.5", "value": 2.9, "unit": "ppm"},
      {"measurement": "Dosage required for 3 log10 bacterial reduction (ppm, active)", "setting": "[4]; 3 hr, pH 8.5", "value": 2.9, "unit": "ppm"},
      {"measurement": "Dosage required for 3 log10 bacterial reduction (ppm, active)", "setting": "[4]; 24 hr, pH 8.5", "value": 4.4, "unit": "ppm"},
      {"measurement": "Dosage required for 3 log10 bacterial reduction (ppm, active)", "setting": "[4]; 48 hr, pH 8.5, reinoculated after 24 hr", "value": 50.0, "unit": "ppm"},
      {"measurement": "factor by which rate of disappearance increases", "setting": "[5]", "value": "about 450"},
      {"measurement": "change in populations of bacteria (FIG. 6)", "setting": "[6]; 5 ppm", "value": "decrease relatively little"},
      {"measurement": "decrease in numbers of bacteria (FIG. 6)", "setting": "[6]; 10 ppm", "value": "approximately 0.5 orders of magnitude"},
      {"measurement": "level of DBMAL or DBNPA remaining (HPLC)", "setting": "[7]; pH 6.9, T = 30 C., 0 hours", "value": 3991},
      {"measurement": "level of DBMAL or DBNPA remaining (HPLC)", "setting": "[7]; pH 6.9, T = 30 C., 2 hours", "value": 4155},
      {"measurement": "level of DBMAL or DBNPA remaining (HPLC)", "setting": "[7]; pH 6.9, T = 30 C., 24 hours", "value": 2557},
      {"measurement": "level of DBMAL or DBNPA remaining (HPLC)", "setting": "[7]; pH 6.9, T = 30 C., 48 hours", "value": 1361},
      {"measurement": "level of DBMAL or DBNPA remaining (HPLC)", "setting": "[7]; pH 6.9, T = 30 C., 72 hours", "value": 918},
      {"measurement": "level of DBMAL or DBNPA remaining (HPLC)", "setting": "[7]; pH 6.9, T = 30 C., 96 hours", "value": 658},
      {"measurement": "level of DBMAL or DBNPA remaining (HPLC)", "setting": "[7]; pH 8, T = −1 C., 0 hours", "value": 4068},
      {"measurement": "level of DBMAL or DBNPA remaining (HPLC)", "setting": "[7]; pH 8, T = −1 C., 2 hours", "value": 3998},
      {"measurement": "level of DBMAL or DBNPA remaining (HPLC)", "setting": "[7]; pH 8, T = −1 C., 24 hours", "value": 3506},
      {"measurement": "level of DBMAL or DBNPA remaining (HPLC)", "setting": "[7]; pH 8, T = −1 C., 48 hours", "value": 3578},
      {"measurement": "level of DBMAL or DBNPA remaining (HPLC)", "setting": "[7]; pH 8, T = −1 C., 72 hours", "value": 3149},
      {"measurement": "level of DBMAL or DBNPA remaining (HPLC)", "setting": "[7]; pH 8, T = −1 C., 96 hours", "value": 3070},
      {"measurement": "level of DBMAL or DBNPA remaining (HPLC)", "setting": "[7]; pH 9, T = −1 C., 0 hours", "value": 3842},
      {"measurement": "level of DBMAL or DBNPA remaining (HPLC)", "setting": "[7]; pH 9, T = −1 C., 2 hours", "value": 2818},
      {"measurement": "level of DBMAL or DBNPA remaining (HPLC)", "setting": "[7]; pH 9, T = −1 C., 24 hours", "value": 1256},
      {"measurement": "level of DBMAL or DBNPA remaining (HPLC)", "setting": "[7]; pH 9, T = −1 C., 48 hours", "value": 659},
      {"measurement": "level of DBMAL or DBNPA remaining (HPLC)", "setting": "[7]; pH 9, T = −1 C., 72 hours", "value": 363},
      {"measurement": "level of DBMAL or DBNPA remaining (HPLC)", "setting": "[7]; pH 9, T = −1 C., 96 hours", "value": 239}
    ]}
  ]
}
